ChEMBL document CHEMBL1201862, “PubChem BioAssay data set” (2004)
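Briefly, cells in 96-well plates were exposed to five compound concentrations for 48 h, and endpoints were estimated by linear interpolation. At the GI50, growth is halved.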 Calls of active or inactive are those of the source. Cut-off read from the data, not from the text of the source: active = GI50 up to about 1.1 µM and inactive = higher.

What was measured:
Assay in all cases: NCI tumour cell line growth inhibition, 48 h
786-0 = test system: 786-0
A498 = test system: A498
A549 = test system: A549
ACHN = test system: ACHN
BT-549 = test system: BT-549
CAKI-1 = test system: CAKI-1
CCRF-CEM = test system: CCRF-CEM
COLO 205 = test system: COLO 205
DU-145 = test system: DU-145
EKVX = test system: EKVX
HCC 2998 = test system: HCC 2998
HCT-116 = test system: HCT-116
HCT-15 = test system: HCT-15
HL-60 = test system: HL-60
HOP-62 = test system: HOP-62
HOP-92 = test system: HOP-92
HT-29 = test system: HT-29
Hs-578T = test system: Hs-578T
IGROV-1 = test system: IGROV-1
K562 = test system: K562
KM12 = test system: KM12
LOX IMVI = test system: LOX IMVI
M14 = test system: M14
MCF7 = test system: MCF7
MDA-MB-231 = test system: MDA-MB-231
MDA-MB-435 = test system: MDA-MB-435
MDA-N = test system: MDA-N
MOLT-4 = test system: MOLT-4
Malme-3M = test system: Malme-3M
NCI-H226 = test system: NCI-H226
NCI-H23 = test system: NCI-H23
NCI-H460 = test system: NCI-H460
NCI-H522 = test system: NCI-H522
NCI/ADR-RES = test system: NCI/ADR-RES
OVCAR-3 = test system: OVCAR-3
OVCAR-4 = test system: OVCAR-4
OVCAR-5 = test system: OVCAR-5
OVCAR-8 = test system: OVCAR-8
PC-3 = test system: PC-3
RPMI-8226 = test system: RPMI-8226
SF-268 = test system: SF-268
SF-295 = test system: SF-295
SF-539 = test system: SF-539
SK-MEL-28 = test system: SK-MEL-28
SK-MEL-2 = test system: SK-MEL-2
SK-MEL-5 = test system: SK-MEL-5
SK-OV-3 = test system: SK-OV-3
SN12C = test system: SN12C
SNB-19 = test system: SNB-19
SNB-75 = test system: SNB-75
SR = test system: SR
SW-620 = test system: SW-620
T47D = test system: T47D
TK-10 = test system: TK-10
U-251 = test system: U-251
UACC-257 = test system: UACC-257
UACC-62 = test system: UACC-62
UO-31 = test system: UO-31
RXF 393 = test system: RXF 393

For O=C(O)/C=N\N=c1[nH]c2ccccc2[nH]1, the GI50 (786-0) was > 100 µM (inactive), the GI50 (A498) was > 100 µM (inactive) and the GI50 (A549) was > 100 µM (inactive). The GI50 (ACHN) was > 100 µM (inactive), the GI50 (BT-549) was > 100 µM (inactive) and the GI50 (CAKI-1) was > 100 µM (inactive). For the same compound, the GI50 (CCRF-CEM) was > 100 µM (inactive), the GI50 (COLO 205) was > 100 µM (inactive) and the GI50 (DU-145) was > 100 µM (inactive). For the same compound, the GI50 (EKVX) was > 100 µM (inactive), the GI50 (HCC 2998) was > 100 µM (inactive) and the GI50 (HCT-116) was > 100 µM (inactive). The GI50 (HCT-15) was over 100 µM, the GI50 (HL-60) was > 100 µM (inactive) and the GI50 (HOP-62) was > 100 µM (inactive). For the same compound, the GI50 (HOP-92) was > 100 µM (inactive), the GI50 (HT-29) was > 100 µM (inactive) and the GI50 (Hs-578T) was > 100 µM (inactive). For the same compound, the GI50 (IGROV-1) was > 100 µM (inactive), the GI50 (K562) was > 100 µM (inactive) and the GI50 (KM12) was > 100 µM (inactive). For the same compound, the GI50 (LOX IMVI) was > 100 µM (inactive), the GI50 (M14) was > 100 µM (inactive) and the GI50 (MCF7) was 49.2 µM (inactive). The GI50 (MDA-MB-231) was > 100 µM (inactive), the GI50 (MDA-MB-435) was > 100 µM (inactive) and the GI50 (MDA-N) was > 100 µM (inactive). For the same compound, the GI50 (MOLT-4) was > 100 µM (inactive), the GI50 (Malme-3M) was > 100 µM (inactive) and the GI50 (NCI-H226) was > 100 µM (inactive). For the same compound, the GI50 (NCI-H23) was > 100 µM (inactive), the GI50 (NCI-H460) was > 100 µM (inactive) and the GI50 (NCI-H522) was > 100 µM (inactive). The GI50 (NCI/ADR-RES) was > 100 µM (inactive), the GI50 (OVCAR-3) was > 100 µM (inactive) and the GI50 (OVCAR-4) was > 100 µM (inactive). The GI50 (OVCAR-5) was > 100 µM (inactive), the GI50 (OVCAR-8) was > 100 µM (inactive) and the GI50 (PC-3) was > 100 µM (inactive). The GI50 (RPMI-8226) was > 100 µM (inactive), the GI50 (SF-268) was > 100 µM (inactive) and the GI50 (SF-295) was > 100 µM (inactive). The GI50 (SF-539) was > 100 µM (inactive), the GI50 (SK-MEL-28) was > 100 µM (inactive) and the GI50 (SK-MEL-2) was > 100 µM (inactive). The GI50 (SK-MEL-5) was > 100 µM (inactive), the GI50 (SK-OV-3) was > 100 µM (inactive) and the GI50 (SN12C) was > 100 µM (inactive). For the same compound, the GI50 (SNB-19) was > 100 µM (inactive), the GI50 (SNB-75) was > 100 µM (inactive) and the GI50 (SR) was > 100 µM (inactive). For the same compound, the GI50 (SW-620) was > 100 µM (inactive), the GI50 (T47D) was > 100 µM (inactive) and the GI50 (TK-10) was > 100 µM (inactive). The GI50 (U-251) was > 100 µM (inactive), the GI50 (UACC-257) was > 100 µM (inactive) and the GI50 (UACC-62) was > 100 µM (inactive). For the same compound, the GI50 (UO-31) was > 100 µM (inactive).

In the case of CCc1nc(N)c2nc(-c3cccs3)oc2n1, the GI50 (786-0) is reported as > 100 µM (inactive), the GI50 (A498) is reported as > 10 µM (inactive) and the GI50 (A549) is reported as > 100 µM (inactive). For the same compound, the GI50 (ACHN) was 36.4 µM (inactive), the GI50 (BT-549) was > 100 µM (inactive) and the GI50 (CAKI-1) was > 100 µM (inactive). For the same compound, the GI50 (CCRF-CEM) was 77.1 µM (inactive), the GI50 (COLO 205) was > 100 µM (inactive) and the GI50 (DU-145) was > 100 µM (inactive). For the same compound, the GI50 (EKVX) was 50.1 µM (inactive), the GI50 (HCC 2998) was > 100 µM (inactive) and the GI50 (HCT-116) was > 100 µM (inactive). For the same compound, the GI50 (HCT-15) was 86.9 µM, the GI50 (HL-60) was > 100 µM (inactive) and the GI50 (HOP-62) was > 100 µM (inactive). For the same compound, the GI50 (HOP-92) was > 100 µM (inactive), the GI50 (HT-29) was > 100 µM (inactive) and the GI50 (Hs-578T) was 45.3 µM (inactive). The GI50 (IGROV-1) was 69.7 µM (inactive), the GI50 (K562) was > 100 µM (inactive) and the GI50 (KM12) was > 100 µM (inactive). For the same compound, the GI50 (LOX IMVI) was 87.7 µM (inactive), the GI50 (M14) was > 100 µM (inactive) and the GI50 (MCF7) was > 100 µM (inactive). The GI50 (MDA-MB-231) was > 100 µM (inactive), the GI50 (MDA-MB-435) was > 100 µM (inactive) and the GI50 (MDA-N) was > 100 µM (inactive). For the same compound, the GI50 (MOLT-4) was > 100 µM (inactive), the GI50 (NCI-H226) was > 100 µM (inactive) and the GI50 (NCI-H23) was > 100 µM (inactive). For the same compound, the GI50 (NCI-H460) was 24.3 µM (inactive), the GI50 (NCI-H522) was > 100 µM (inactive) and the GI50 (NCI/ADR-RES) was > 100 µM (inactive). The GI50 (OVCAR-3) was > 100 µM (inactive), the GI50 (OVCAR-5) was > 100 µM (inactive) and the GI50 (OVCAR-8) was > 100 µM (inactive). For the same compound, the GI50 (PC-3) was > 100 µM (inactive), the GI50 (RPMI-8226) was 84.1 µM (inactive) and the GI50 (RXF 393) was > 100 µM (inactive). For the same compound, the GI50 (SF-268) was > 100 µM (inactive), the GI50 (SF-295) was > 100 µM (inactive) and the GI50 (SF-539) was > 100 µM (inactive). The GI50 (SK-MEL-28) was > 100 µM (inactive), the GI50 (SK-MEL-2) was > 100 µM (inactive) and the GI50 (SK-MEL-5) was > 100 µM (inactive). The GI50 (SN12C) was > 100 µM (inactive), the GI50 (SNB-19) was 9.25 µM (inactive) and the GI50 (SNB-75) was 71.4 µM (inactive). For the same compound, the GI50 (SR) was 54.8 µM (inactive), the GI50 (SW-620) was > 100 µM (inactive) and the GI50 (T47D) was 79.8 µM (inactive). For the same compound, the GI50 (TK-10) was > 100 µM (inactive), the GI50 (U-251) was > 100 µM (inactive) and the GI50 (UACC-257) was > 100 µM (inactive). For the same compound, the GI50 (UACC-62) was > 100 µM (inactive) and the GI50 (UO-31) was 65.6 µM (inactive).

In the case of CCOC(=O)c1nc2ccc(C(F)(F)F)cc2nc1Nc1ccc(OC)c(OC)c1, the GI50 (786-0) is reported as 26.5 µM (inactive), the GI50 (A498) is reported as > 100 µM (inactive) and the GI50 (A549) is reported as > 100 µM (inactive). The GI50 (ACHN) was 44.1 µM (inactive), the GI50 (BT-549) was 97.9 µM (inactive) and the GI50 (CAKI-1) was 24.5 µM (inactive). For the same compound, the GI50 (CCRF-CEM) was > 100 µM (inactive), the GI50 (COLO 205) was > 100 µM (inactive) and the GI50 (DU-145) was > 100 µM (inactive). The GI50 (EKVX) was > 100 µM (inactive), the GI50 (HCC 2998) was > 100 µM (inactive) and the GI50 (HCT-116) was 94.4 µM (inactive). The GI50 (HCT-15) was over 100 µM, the GI50 (HL-60) was > 100 µM (inactive) and the GI50 (HOP-62) was 12 µM (inactive). For the same compound, the GI50 (HOP-92) was 65.2 µM (inactive), the GI50 (HT-29) was > 100 µM (inactive) and the GI50 (Hs-578T) was > 100 µM (inactive). The GI50 (IGROV-1) was > 100 µM (inactive), the GI50 (K562) was > 100 µM (inactive) and the GI50 (KM12) was > 100 µM (inactive). For the same compound, the GI50 (LOX IMVI) was > 100 µM (inactive), the GI50 (M14) was > 100 µM (inactive) and the GI50 (MCF7) was > 100 µM (inactive). The GI50 (MDA-MB-231) was 48.9 µM (inactive), the GI50 (MDA-MB-435) was > 100 µM (inactive) and the GI50 (MDA-N) was > 100 µM (inactive). The GI50 (MOLT-4) was > 100 µM (inactive), the GI50 (Malme-3M) was > 100 µM (inactive) and the GI50 (NCI-H226) was > 100 µM (inactive). For the same compound, the GI50 (NCI-H23) was > 100 µM (inactive), the GI50 (NCI-H460) was > 100 µM (inactive) and the GI50 (NCI-H522) was > 100 µM (inactive). For the same compound, the GI50 (NCI/ADR-RES) was > 100 µM (inactive), the GI50 (OVCAR-3) was > 100 µM (inactive) and the GI50 (OVCAR-5) was > 100 µM (inactive). For the same compound, the GI50 (OVCAR-8) was > 100 µM (inactive), the GI50 (PC-3) was > 100 µM (inactive) and the GI50 (RPMI-8226) was > 100 µM (inactive). The GI50 (RXF 393) was > 100 µM (inactive), the GI50 (SF-268) was 78.2 µM (inactive) and the GI50 (SF-295) was > 100 µM (inactive). The GI50 (SF-539) was 98.6 µM (inactive), the GI50 (SK-MEL-28) was > 100 µM (inactive) and the GI50 (SK-MEL-5) was > 100 µM (inactive). For the same compound, the GI50 (SK-OV-3) was 60 µM (inactive), the GI50 (SN12C) was > 100 µM (inactive) and the GI50 (SNB-19) was 31.7 µM (inactive). The GI50 (SNB-75) was 21.6 µM (inactive), the GI50 (SR) was 17.8 µM (inactive) and the GI50 (SW-620) was > 100 µM (inactive). For the same compound, the GI50 (T47D) was > 100 µM (inactive), the GI50 (TK-10) was 41.8 µM (inactive) and the GI50 (UACC-257) was > 100 µM (inactive). For the same compound, the GI50 (UACC-62) was > 100 µM (inactive) and the GI50 (UO-31) was > 100 µM (inactive).
